According to patent US7812170B2, “Insecticides” (Syngenta Crop Protection, Inc., priority 2004, dated 2010):

What was measured:
Diabrotica balteata = test: Activity against Diabrotica balteata (sprayed maize seedlings); type: in vivo; details: 144 h, 400 ppm active ingredient, 2nd instar larvae, 6 days, read-out: percentage reduction in the population (% activity)
Method: Activity Against Diabrotica balteata Maize seedlings are sprayed with an aqueous emulsion spray mixture comprising 400 ppm of active ingredient and, after the spray coating has dried on, populated with 10 larvae (2nd instar) of Diabrotica balteata and introduced into a plastic container. 6 days later, the percentage reduction in the population (% activity) is determined by comparing the number of dead larvae between the treated and untreated plants.

Heliothis virescens = test: Activity against Heliothis virescens (foliar application); type: in vivo; details: 144 h, 400 ppm active ingredient, sprayed young soya plants, 1st instar caterpillars, 6 days, read-out: percentage reduction in the population and in the feeding damage (% activity)
Method: (§1) Activity Against Heliothis virescens (Foliar Application) Young soya plants are sprayed with an aqueous emulsion spray mixture comprising 400 ppm of active ingredient and, after the spray coating has dried on, populated with 10 caterpillars (1st instar) of Heliothis virescens and introduced into a plastic container. 6 days later, the percentage reduction in the population and in the feeding damage (% activity) are determined by comparing the number of dead caterpillars and the feeding damage between the treated and untreated plants.

Plutella xylostella = test: Activity against Plutella xylostella (sprayed cabbage plants); type: in vivo; details: 72 h, 400 ppm active ingredient, sprayed young cabbage plants, 3rd instar caterpillars, 3 days, read-out: percentage reduction in the population and in the feeding damage (% activity)
Method: as §1, with “Plutella xylostella” for “Heliothis virescens (Foliar Application)”, “cabbage” for “soya”, “(3rd” for “(1st”, “Plutella xylostella” for “Heliothis virescens”, “3” for “6”

Spodoptera littoralis = test: Activity against Spodoptera littoralis (sprayed soya plants); type: in vivo; details: 72 h, 400 ppm active ingredient, sprayed young soya plants, 1st instar caterpillars, 3 days, read-out: percentage reduction in the population and in the feeding damage (% activity)
Method: as §1, with “Spodoptera littoralis” for “Heliothis virescens (Foliar Application)”, “Spodoptera littoralis” for “Heliothis virescens”, “3” for “6”

Structure (SMILES)	melting point [°C]	inhibition at 400 ppm (Diabrotica balteata) [%]	inhibition at 400 ppm (Heliothis virescens) [%]	inhibition at 400 ppm (Plutella xylostella) [%]	inhibition at 400 ppm (Spodoptera littoralis) [%]
CC(C)NC(=O)c1cc2ccccc2c(Cl)c1NC(=O)c1cc(C(F)(F)F)nn1-c1ncccc1Cl [Compound T1.3]		> 80	> 80	> 80	> 80
CNC(=O)c1cc2cc(Br)ccc2c(Cl)c1NC(=O)c1cc(C(F)(F)F)nn1-c1ncccc1Cl [Compound T2.1]			> 80	> 80	> 80
CCNC(=O)c1cc2cc(Br)ccc2c(Cl)c1NC(=O)c1cc(C(F)(F)F)nn1-c1ncccc1Cl [Compound T2.2]			> 80	> 80	> 80
CNC(=O)c1cc2cc(C#N)ccc2c(Cl)c1NC(=O)c1cc(C(F)(F)F)nn1-c1ncccc1Cl [Compound T5.1]			> 80	> 80	> 80
CC(C)NC(=O)c1cc2cc(C#N)ccc2c(Cl)c1NC(=O)c1cc(C(F)(F)F)nn1-c1ncccc1Cl [Compound T5.3]			> 80	> 80	> 80
CC(C)NC(=O)c1cc2ccccc2c(Br)c1NC(=O)c1cc(C(F)(F)F)nn1-c1ncccc1Cl [Compound T7.3]		> 80	> 80	> 80	> 80
CNC(=O)c1cc2ccccc2c(C)c1NC(=O)c1cc(C(F)(F)F)nn1-c1ncccc1Cl [Compound T8.1]			> 80	> 80	> 80
CNC(=O)c1cc2cc(Br)ccc2c(Br)c1NC(=O)c1cc(C(F)(F)F)nn1-c1ncccc1Cl [Compound T9.1]			> 80	> 80	> 80
CCNC(=O)c1cc2cc(Br)ccc2c(Br)c1NC(=O)c1cc(C(F)(F)F)nn1-c1ncccc1Cl [Compound T9.2]			> 80	> 80	> 80
CC(C)NC(=O)c1cc2cc(Br)ccc2c(Br)c1NC(=O)c1cc(C(F)(F)F)nn1-c1ncccc1Cl [Compound T9.3]			> 80	> 80	> 80
CNC(=O)c1cc2cc(Cl)ccc2c(Cl)c1NC(=O)c1cc(C(F)(F)F)nn1-c1ncccc1Cl [Compound T20.1]			> 80	> 80	> 80
CC(C)NC(=O)c1cc2cc(Cl)ccc2c(Cl)c1NC(=O)c1cc(C(F)(F)F)nn1-c1ncccc1Cl [Compound T20.3]			> 80	> 80	> 80
CC(C)NC(=O)c1cc(Cl)c2ccccc2c1NC(=O)c1cc(C(F)(F)F)nn1-c1ncccc1Cl [Compound T22.3]				> 80	
CNC(=O)c1c(NC(=O)c2cc(C(F)(F)F)nn2-c2ncccc2Cl)nc2c(c1-c1ccccc1)CCCC2 [Compound T51.1]	165 to 168				
CNC(=O)c1c(NC(=O)c2cc(C(F)(F)F)nn2-c2ncccc2Cl)nc2c(c1-c1ccccc1)CCCCC2 [Compound T52.1]	211 to 213				
CC(C)NC(=O)[C@H]1Cc2ccccc2C[C@H]1NC(=O)c1cc(C(F)(F)F)nn1-c1ncccc1Cl [Compound T72.3]	229 to 232				
CC(C)NC(=O)[C@H]1Cc2ccccc2C(C)[C@H]1NC(=O)c1cc(C(F)(F)F)nn1-c1ncccc1Cl (stereo partly drawn) [Compound T73.3]	223 to 225				
CNC(=O)c1nc2ccccc2c(C)c1NC(=O)c1cc(C(F)(F)F)nn1-c1ncccc1Cl [Compound T75.1]			> 80	> 80	> 80
Cc1c(NC(=O)c2cc(C(F)(F)F)nn2-c2ncccc2Cl)c(C(=O)NC(C)C)nc2ccccc12 [Compound T75.3]			> 80	> 80	> 80
CNC(=O)c1cc2c([N+](=O)[O-])cccc2c(Cl)c1NC(=O)c1cc(C(F)(F)F)nn1-c1ncccc1Cl [Compound T76.1]			> 80	> 80	> 80
CC(C)NC(=O)c1cc2c([N+](=O)[O-])cccc2c(Cl)c1NC(=O)c1cc(C(F)(F)F)nn1-c1ncccc1Cl [Compound T76.3]			> 80	> 80	> 80
CNC(=O)c1cc2ccccc2c([N+](=O)[O-])c1NC(=O)c1cc(C(F)(F)F)nn1-c1ncccc1Cl [Compound T78.1]				> 80	
CNC(=O)c1sc2cccc(Cl)c2c1NC(=O)c1cc(C(F)(F)F)nn1-c1ncccc1Cl [Compound T79.1]			> 80	> 80	
CNC(=O)c1c(NC(=O)c2cc(C(F)(F)F)nn2-c2ncccc2Cl)c(C)nc2ccccc12 [Compound T81.1]			> 80	> 80	

Continued, in another order:

melting point [°C]	Structure (SMILES)	inhibition at 400 ppm (Diabrotica balteata) [%]	inhibition at 400 ppm (Heliothis virescens) [%]	inhibition at 400 ppm (Plutella xylostella) [%]	inhibition at 400 ppm (Spodoptera littoralis) [%]
274 to 276	CNC(=O)c1cc2c(c(Br)c1NC(=O)c1cc(C(F)(F)F)nn1-c1ncccc1Cl)OC(C)(C)O2				
242 to 244	CNC(=O)c1cc2c(c(C)c1NC(=O)c1cc(C(F)(F)F)nn1-c1ncccc1Cl)OC(C)(C)O2				
256 to 258	Cc1c(NC(=O)c2cc(C(F)(F)F)nn2-c2ncccc2Cl)c(C(=O)NC(C)C)cc2c1OC(C)(C)O2				
265 to 267	CNC(=O)c1cc2c(c(Cl)c1NC(=O)c1cc(C(F)(F)F)nn1-c1ncccc1Cl)OC(F)(F)O2				
261 to 263	CNC(=O)c1c(NC(=O)c2cc(C(F)(F)F)nn2-c2ncccc2Cl)sc2c1CCCC2 [Compound T46.1]				
246 to 248	CC(C)NC(=O)c1c(NC(=O)c2cc(C(F)(F)F)nn2-c2ncccc2Cl)sc2c1CCCC2 [Compound T46.3]				
145 to 147	CNC(=O)c1cc2c(nc1NC(=O)c1cc(C(F)(F)F)nn1-c1ncccc1Cl)CCCC2 [Compound T50.1]				
143 to 145	CC(C)NC(=O)c1cc2c(nc1NC(=O)c1cc(C(F)(F)F)nn1-c1ncccc1Cl)CCCC2 [Compound T50.3]				
146 to 148	CC(C)NC(=O)c1c(NC(=O)c2cc(C(F)(F)F)nn2-c2ncccc2Cl)nc2c(c1-c1ccccc1)CCCC2 [Compound T51.3]				
269 to 270	CC(C)NC(=O)c1c(NC(=O)c2cc(C(F)(F)F)nn2-c2ncccc2Cl)nc2c(c1-c1ccccc1)CCCCC2 [Compound T52.3]				
183 to 185	CNC(=O)c1c(NC(=O)c2cc(C(F)(F)F)nn2-c2ncccc2Cl)nc2c(c1-c1cccc(Cl)c1)CCCC2 [Compound T53.1]				
259 to 260	CC(C)NC(=O)c1c(NC(=O)c2cc(C(F)(F)F)nn2-c2ncccc2Cl)nc2c(c1-c1cccc(Cl)c1)CCCC2 [Compound T53.3]				
226 to 228	CNC(=O)[C@H]1Cc2ccccc2C[C@H]1NC(=O)c1cc(C(F)(F)F)nn1-c1ncccc1Cl [Compound T72.1]				
230 to 233	O=C(N[C@@H]1Cc2ccccc2C[C@@H]1C(=O)NC1CC1)c1cc(C(F)(F)F)nn1-c1ncccc1Cl [Compound T72.207]				
184 to 186	CSCC(C)(C)NC(=O)[C@H]1Cc2ccccc2C[C@H]1NC(=O)c1cc(C(F)(F)F)nn1-c1ncccc1Cl [Compound T72.273]				
205 to 207	CNC(=O)[C@H]1Cc2ccccc2C(C)[C@H]1NC(=O)c1cc(C(F)(F)F)nn1-c1ncccc1Cl (stereo partly drawn) [Compound T73.1]				
192 to 194	CC1c2ccccc2C[C@H](C(=O)NC2CC2)[C@@H]1NC(=O)c1cc(C(F)(F)F)nn1-c1ncccc1Cl (stereo partly drawn) [Compound T73.207]				
133 to 135	CNC(=O)c1c(NC(=O)c2cc(C(F)(F)F)nn2-c2ncccc2Cl)sc2c1CCC(OC)C2 (stereo not drawn) [Compound T74.1]				
206 to 207	COC1CCc2c(sc(NC(=O)c3cc(C(F)(F)F)nn3-c3ncccc3Cl)c2C(=O)NC(C)C)C1 (stereo not drawn) [Compound T74.3]				
264 to 266	CNC(=O)c1sc2nsc(C)c2c1NC(=O)c1cc(C(F)(F)F)nn1-c1ncccc1Cl [Compound T88.1]				
261 to 263	Cc1snc2sc(C(=O)NC(C)C)c(NC(=O)c3cc(C(F)(F)F)nn3-c3ncccc3Cl)c12 [Compound T88.3]				
